Results on 23 compounds are retold here after US20090226398A1, “ANTI-VIRAL COMPOUNDS, COMPOSITIONS, AND METHODS OF USE” (Genelabs Technologies, Inc., priority 2008, published 2009).

This test deals with HCV replication. Put plainly: Replicon Assay (Huh-lucubineo-ET cells, luciferase readout). It is filed as cell-based. To be noted: Hepatitis C virus; ET (Huh-lucubineo-ET) HCV replicon cell line; luciferase activity 48-72 hours after compound addition; 6 dilutions. As for the experimental part: A cell line, ET (Huh-lucubineo-ET) was used for screening of compounds of the present invention for inhibition of HCV replication. The ET cell line was stably transfected with RNA transcripts harboring a I389luc-ubi-neo/NS3-3′/ET; replicon with firefly luciferase-ubiquitin-neomycin phosphotransferase fusion protein and EMCV-IRES driven NS3-5B polyprotein containing the cell culture adaptive mutations (E1202G; T1280I; K1846T) (Krieger at al, 2001 and unpublished). The ET cells were grown in DMEM, supplemented with 10% fetal calf serum, 2 mM Glutamine, Penicillin (100 IU/mL)/Streptomycin (100 μg/mL), 1× nonessential amino acids, and 250 μg/mL G418 (“Geneticin”). They were all available through Life Technologies (Bethesda, Md.). The cells were plated at 0.5−1.0×10^4 cells/well in the 96 well plates and incubated for 24 hrs before adding the test compounds. The compounds were then added to the cells to achieve a final concentration of 5 or 50 μM. Luciferase activity was measured 48-72 hours later by adding a lysis buffer and the substrate (Catalog number Glo-lysis buffer E2661 and Bright-Glo luciferase system E2620 Promega, Madison, Wis.). Cells should not be too confluent during the assay. Percent inhibition of replication was plotted relative to no compound control. For EC50 (effective concentration at which 50% of the maximum inhibition is observed) determinations, 6 dilutions of each compound were used. Compounds were typically diluted 3 fold to span a concentration range of 250 fold. EC50 and similarly TC50 values were calculated by fitting % inhibition at each concentration to the following equation:
% inhibition=100%/[(EC50/[I])^b+1]
where b is Hill's coefficient.
For orientation: EC50 means the concentration needed to bring the measured effect to its halfway point. A lower EC50 goes with an effect from little substance. `Fc1cccc(-c2nc3cnn(Cc4ccc(N5CCCCC5)cc4)cc-3n2)c1F` [Compound 304, 2-(2,3-Difluoro-phenyl)-5-(4-piperidin-1-yl-benzyl)-5H-imidazo[4,5-d]pyridazine] gave an EC50 of 3870 nM.

In the case of `Fc1cccc(-c2nc3cnn(Cc4cccc(-c5ccc(C(F)(F)F)cc5C(F)(F)F)c4)cc-3n2)c1F` [Compound 256, 5-(2′,4′-Bis-trifluoromethyl-biphenyl-3-ylmethyl)-2-(2,3-difluoro-phenyl)-5H-imidazo[4,5-d]pyridazine], the EC50 amounted to 9790 nM. The compound `COc1ccc(-c2ccc(Cn3cc4nc(-c5cccc(F)c5F)nc-4cn3)c(N)n2)c(C(F)(F)F)c1` [Compound 242, 3-[2-(2,3-Difluoro-phenyl)-imidazo[4,5-d]pyridazin-5-ylmethyl]-6-(4-methoxy-2-trifluoromethyl-phenyl)-pyridin-2-ylamine] came in with a half-maximal effective concentration (EC50) of 44 nM.

`COc1ccc(-c2ccc(Cn3cc4nc(-c5cccc(F)c5F)nc-4cn3)c[n+]2[O-])c(C(F)(F)F)c1` [Compound 338, 2-(2,3-Difluoro-phenyl)-5-[6-(4-methoxy-2-trifluoromethyl-phenyl)-1-oxy-pyridin-3-ylmethyl]-5H-imidazo[4,5-d]pyridazine] came in with a concentration for a half-maximal effect (EC50) of 1300 nM. Then `Fc1cccc(-c2nc3cnn(Cc4ccc(-c5ccc(C(F)(F)F)cc5C(F)(F)F)nc4)cc-3n2)c1F` [Compound 130, 5-[6-(2,4-Bis-trifluoromethyl-phenyl)-pyridin-3-ylmethyl]-2-(2,3-difluoro-phenyl)-5H-imidazo[4,5-d]pyridazine], with 8 nM; and `Fc1cccc(-c2nc3cnn(Cc4ccc(-c5ccc(OC(F)(F)F)cc5)nn4)cc-3n2)c1F` [Compound 119, 2-(2,3-Difluoro-phenyl)-5-[6-(4-trifluoromethoxy-phenyl)-pyridazin-3-ylmethyl]-5H-imidazo[4,5-d]pyridazine], with 3100 nM; and `CCOc1ccc(-c2ccc(Cn3cc4nc(-c5ccccc5F)nc-4cn3)nn2)c(C(F)(F)F)c1` [Compound 315, 5-[6-(4-Ethoxy-2-trifluoromethyl-phenyl)-pyridazin-3-ylmethyl]-2-(2-fluoro-phenyl)-5H-imidazo[4,5-d]pyridazine], with 20 nM.

For the compound `CN(C)Cc1ccc(-c2ccc(Cn3cc4nc(-c5cccc(F)c5F)nc-4cn3)nn2)cc1` [Compound 233, (4-{6-[2-(2,3-Difluoro-phenyl)-imidazo[4,5-d]pyridazin-5-ylmethyl]-pyridazin-3-yl}-benzyl)-dimethyl-amine], the EC50 is ≥ 50000 nM.

In the case of `COc1ccc(-c2ccc(Cn3cc4nc(-c5cccc(F)c5F)nc-4cn3)c(C)n2)c(C(F)(F)F)c1` [Compound 224, 2-(2,3-Difluoro-phenyl)-5-[6-(4-methoxy-2-trifluoromethyl-phenyl)-2-methyl-pyridin-3-ylmethyl]-5H-imidazo[4,5-d]pyridazine], a half-maximal response (EC50) required 281 nM.

With `Nc1cc(C(F)(F)F)ccc1-c1ccc(Cn2cc3nc(-c4cccc(F)c4F)nc-3cn2)cn1` [Compound 335, 2-{5-[2-(2,3-Difluoro-phenyl)-imidazo[4,5-d]pyridazin-5-ylmethyl]-pyridin-2-yl}-5-trifluoromethyl-phenylamine], the half-maximal effective concentration (EC50) stood at 2390 nM. Compound `CCCOc1ccc(-c2ccc(Cn3cc4nc(-c5cccc(F)c5F)nc-4cn3)c(N)n2)c(C(F)(F)F)c1` [Compound 232, 3-[2-(2,3-Difluoro-phenyl)-imidazo[4,5-d]pyridazin-5-ylmethyl]-6-(4-propoxy-2-trifluoromethyl-phenyl)-pyridin-2-ylamine] showed a concentration for a half-maximal effect (EC50) of 18 nM. `CC[C@H](C)COc1ccc(-c2ccc(Cn3cc4nc(-c5cccc(F)c5F)nc-4cn3)nn2)c(C(F)(F)F)c1` [Compound 321, 2-(2,3-Difluoro-phenyl)-5-{6-[4-(2-methyl-butoxy)-2-trifluoromethyl-phenyl]-pyridazin-3-ylmethyl}-5H-imidazo[4,5-d]pyridazine] displayed an EC50 of 45 nM. Then `CCCc1ccc(-c2ccc(Cn3cc4nc(-c5cccc(F)c5F)nc-4cn3)nn2)cc1` [Compound 220, 2-(2,3-Difluoro-phenyl)-5-[6-(4-propyl-phenyl)-pyridazin-3-ylmethyl]-5H-imidazo[4,5-d]pyridazine], with 520 nM. As to `Fc1cccc(-c2nc3cnn(Cc4ccc(-c5ccc(C(F)(F)F)cc5C(F)(F)F)cn4)cc-3n2)c1F` [Compound 129, 5-[5-(2,4-Bis-trifluoromethyl-phenyl)-pyridin-2-ylmethyl]-2-(2,3-difluoro-phenyl)-5H-imidazo[4,5-d]pyridazine], it took 19 nM to reach a half-maximal effect (EC50). On to `Fc1cccc(-c2nc3cnn(Cc4ccc5ccccc5c4)cc-3n2)c1F` [Compound 278, 2-(2,3-Difluoro-phenyl)-5-naphthalen-2-ylmethyl-5H-imidazo[4,5-d]pyridazine], for which the EC50 was ≥ 50000 nM.

As to `Cn1ccc2cc(-c3ccc(Cn4cc5nc(-c6cccc(F)c6F)nc-5cn4)nn3)ccc21` [Compound 216, 2-(2,3-Difluoro-phenyl)-5-[6-(1-methyl-1H-indol-5-yl)-pyridazin-3-ylmethyl]-5H-imidazo[4,5-d]pyridazine], the concentration for a half-maximal effect (EC50) was ≥ 50000 nM. With `CCCOc1ccc(-c2ccc(Cn3cc4nc(-c5cccc(F)c5F)nc-4cn3)cc2N)cc1` [Compound 357, 4-[2-(2,3-Difluoro-phenyl)-imidazo[4,5-d]pyridazin-5-ylmethyl]-4′-propoxy-biphenyl-2-ylamine], the EC50 is ≥ 50000 nM. The figure for `COc1ccc(-c2ccc(Cn3cc4nc(-c5cccc(F)c5F)nc-4cn3)c(Cl)n2)c(C(F)(F)F)c1` [Compound 255, 5-[2-Chloro-6-(4-methoxy-2-trifluoromethyl-phenyl)-pyridin-3-ylmethyl]-2-(2,3-difluoro-phenyl)-5H-imidazo[4,5-d]pyridazine] is 69 nM.

`Fc1cccc(-c2nc3cnn(Cc4ccc(/C=C/c5ccccc5)cc4)cc-3n2)c1F` [Compound 281, 2-(2,3-Difluoro-phenyl)-5-(4-styrylbenzyl)-5H-imidazo[4,5-d]pyridazine] returned an EC50 of 1800 nM. The figure for `COc1ccc(-c2ccc(Cn3cc4nc(-c5cccc(F)c5F)nc-4cn3)nc2N)c(C(F)(F)F)c1` [Compound 358, 6-[2-(2,3-Difluoro-phenyl)-imidazo[4,5-d]pyridazin-5-ylmethyl]-3-(4-methoxy-2-trifluoromethyl-phenyl)-pyridin-2-ylamine] is 291 nM. Take `Fc1cccc(-c2nc3cnn(Cc4ccc(-c5ccc(C(F)(F)F)cc5)nc4)cc-3n2)c1F` [Compound 253, 2-(2,3-Difluoro-phenyl)-5-[6-(4-trifluoromethyl-phenyl)-pyridin-3-ylmethyl]-5H-imidazo[4,5-d]pyridazine]: the EC50 was ≥ 50000 nM. Then `Fc1cccc(-c2nc3cnn(Cc4ccc(-c5ccc(-c6cccs6)cc5C(F)(F)F)nn4)cc-3n2)c1F` [Compound 354, 2-(2,3-Difluoro-phenyl)-5-[6-(4-thiophen-2-yl-2-trifluoromethyl-phenyl)-pyridazin-3-ylmethyl]-5H-imidazo[4,5-d]pyridazine], with 225 nM. Then `Nc1ccc(-c2ccc(Cn3cc4nc(-c5cccc(F)c5F)nc-4cn3)cn2)c(C(F)(F)F)c1` [Compound 364, 4-{5-[2-(2,3-Difluoro-phenyl)-imidazo[4,5-d]pyridazin-5-ylmethyl]-pyridin-2-yl}-3-trifluoromethyl-phenylamine], with ≥ 50000 nM.
